Consider 3 compounds from patent US20140031288A1, “NOVEL COMPOSITION FOR TUMOR GROWTH CONTROL” (Erasmus University Medical Center, priority 2006, published 2014).

Each structure is given as a SMILES string.

The test system of experiment [1] is human BON carcinoid cells. As to the kind of experiment: Apoptosis assay (DNA fragmentation, Cell Death Detection ELISA). The experiment is classed as cell-based. The conditions noted are these: for effect on apoptosis, measured as DNA fragmentation, drug alone: 10^−8M. The procedure: Human pancreatic carcinoid BON cells were obtained from Dr Townsend (The University of Texas Medical Branch, Galveston, Tex., USA). The cells were cultured in a humidified incubator containing 5% CO2 at 37° C. The culture medium consisted of a 1:1 mixture of Dulbecco's modified Eagle's medium (DMEM) and F12K medium, supplemented with 10% FCS, penicillin (1×105 U/l), fungizone (0.5 mg/l) and 1-glutamine (2 mmol/l). Periodically, cells were confirmed as Mycoplasma-free. Cells were harvested with trypsin EDTA 10% and resuspended in medium. Before plating, cells were counted microscopically using a standard hemocytometer. […] Media and supplements were obtained from GIBCO Bio-cult Europe (Invitrogen, Breda, The Netherlands).
After trypsinization BON cells were plated in 24-well plates at a density of 1.5-2×10^4 cells/well. These plates were placed in a 37° C., 5% CO2 incubator. Three days later the medium was refreshed in the presence and absence (control group) of 5-aza-2′-deoxycytidine at different concentrations in the dose curve response experiment (10^−5M, 10^−6M, 10^−7M, 10^−8M and 10^−9M) or 5-aza-2′-deoxycytidine (5×10^−8M) with or without the somatostatin analog octreotide (10^−8M) or the dopamine agonist cabergoline (10^−8M).
Quadruplicates of each treatment were performed. After an additional incubation of 3 days, apoptosis was assessed using a commercially available ELISA kit (Cell Death Detection ELISAPlus, Roche Diagnostic GmbH, Penzberg, Germany). This assay is based on a quantitative sandwich-enzyme-immunoassay-principle, using mouse monoclonal antibodies directed against DNA and histones, respectively. This allows the specific determination of mono- and oligo-nucleosomes in the cytoplasmatic fraction of cell lysate, typical for apoptosis. The standard protocol supplied by the manufacturer was used. Briefly, the medium was carefully removed by suction, cells were incubated in 100 μl of lysis buffer (provided with the Cell Death Detection ELISAPlus assay). After lysis of the cells the solution was incubated with anti-DNA and anti-histone antibodies in a streptavidin-coated 96-well plate for 2 hours. After washing, the immunocomplex-bound peroxidase was probed with 2,2′-azino-di[3-ethylbenzthiazoline sulfonate] (a chromogenic substrate) for spectrophotometric detection at 405 nm, to quantify the amount of nucleosomes bound to the plate. Relative apoptosis was determined by a ratio of the average absorbance of the treatment wells to the average absorbance of the control wells.
On the technique in general: An ELISA detects its analyte on a solid surface through an enzyme-linked reagent.

Experiment [2] deals with human BON carcinoid tumor cells. As to the kind of experiment: Cell proliferation assay (total DNA content, Hoechst 33258). The class given is cell-based. The conditions noted are these: for effect on BON carcinoid cell growth, measured as DNA content: 10^−8M, drug alone. The procedure:
Human pancreatic carcinoid BON cells were obtained from Dr Townsend (The University of Texas Medical Branch, Galveston, Tex., USA). The cells were cultured in a humidified incubator containing 5% CO2 at 37° C. The culture medium consisted of a 1:1 mixture of Dulbecco's modified Eagle's medium (DMEM) and F12K medium, supplemented with 10% FCS, penicillin (1×105 U/l), fungizone (0.5 mg/l) and 1-glutamine (2 mmol/l). Periodically, cells were confirmed as Mycoplasma-free. Cells were harvested with trypsin EDTA 10% and resuspended in medium. Before plating, cells were counted microscopically using a standard hemocytometer. Trypan Blue staining was used to assess cell viability, which always exceeded 95%. Media and supplements were obtained from GIBCO Bio-cult Europe (Invitrogen, Breda, The Netherlands).
After trypsinization, the cells were plated in 1 ml of medium in 24-well plates at a density of 0.4-2×10^4 cells/well. The plates were then placed in a 37° C., 5% CO2 incubator. Three days later the cell culture medium was replaced with 1 ml/well medium containing 5-aza-2′-deoxycytidine at different concentrations in the dose curve response experiment (0, 10^−5M, 10^−6M, 10^−7M, 10^−8M and 10^−9M) or 5-aza-2′-deoxycytidine (5×10^−8M) with or without the somatostatin analog octreotide (10^−8M) or the dopamine agonist cabergoline (10^−8M). In experiments evaluating the combination of 5-aza-2′-deoxycytidine and octreotide or cabergoline, a pre-treatment with 5-aza-2′-deoxycytidine (5×10^−8M) has been performed for 24 hours.
Plates were further incubated at 37° C. and 5% CO2. After 3 and 6 days of treatment cells were harvested for DNA measurement. Plates for 6 days were refreshed after 3 days and compounds were added again. Quadruplicates of each treatment were performed. Measurement of total DNA-contents, representative for the number of cells, was performed using the bisbenzimide fluorescent dye (Hoechst™ 33258) (Boehring Diagnostics, La Jolla, Calif.), as previously described (Hofland L J, van Koetsveld P M, Lamberts S W. Percoll density gradient centrifugation of rat pituitary tumor cells: a study of functional heterogeneity within and between tumors with respect to growth rates, prolactin production and responsiveness to the somatostatin analog SMS 201-995. Eur J Cancer 1990; 26:37-44.).

With `C[C@@H](O)[C@@H]1NC(=O)[C@H](CCCCN)NC(=O)[C@@H](Cc2c[nH]c3ccccc23)NC(=O)[C@H](Cc2ccccc2)NC(=O)[C@@H](NC(=O)[C@H](N)Cc2ccccc2)CSSC[C@@H](C(=O)N[C@H](CO)[C@@H](C)O)NC1=O` [octreotide], the “effect on apoptosis, measured as DNA fragmentation, drug alone” value in experiment [1] (3 day incubation) is “no statistically significant effect”. Besides, the “effect on BON carcinoid cell growth, measured as DNA content” value in experiment [2] (3 or 6 day incubation) was “no statistically significant effect”.

For `C=CCN1C[C@H](C(=O)N(CCCN(C)C)C(=O)NCC)C[C@@H]2c3cccc4[nH]cc(c34)C[C@H]21` [cabergoline], the “effect on apoptosis, measured as DNA fragmentation, drug alone” value in experiment [1] (3 day incubation) was “no statistically significant effect”. In experiment [2] (3 or 6 day incubation), the “effect on BON carcinoid cell growth, measured as DNA content” value is “no statistically significant effect”.

As to `Nc1ncn([C@H]2C[C@H](O)[C@@H](CO)O2)c(=O)n1` [5-aza-2′-deoxycytidine], the “induction of DNA fragmentation” value in experiment [1] (5×10^−8M, 3 days, p<0.001 vs control) is reported as “approximately 100%”. In addition, the “induction of DNA fragmentation, dose curve” value in experiment [1] (3 day incubation, 10^−9M to 10^−5M, data not shown) is on record as “dose-dependent manner”. For the same compound, the “effect of AZA alone on DNA fragmentation (FIG. 3, FIG. 4)” value in experiment [1] (AZA (5 nM) alone) is listed as “moderate effect”. The “EC25 value of the apoptosis inducing effect” value in experiment [1] (after 3 days of incubation) is on record as “approximately 5×10^−8 M”. The “inhibition of BON carcinoid cell growth, dose curve” value in experiment [2] (3 or 6 day incubation, 10^−9M to 10^−5M, data not shown) was “time- and dose-dependent manner”. In addition, the “inhibition of BON carcinoid cell growth at low dose” value in experiment [2] (5×10^−8M, 6 days, p<0.001 vs control) is given as “significantly inhibited”. In experiment [2] (after 6 days of incubation), the “IC25 value of the tumor cell growth inhibitory effect” value is given as “approximately 5×10^−8 M”.
